The values below come from PubChem BioAssay (NCI).

Common to all, as to assay: DTP human tumour cell line panel, 48 h
Test [1] concerns A549 NSCLC.
In test [2] the test system is CCRF-CEM leukemia.
The subject of test [3] is HCC-2998 colon.
Test [4] has as its system HL-60(TB) leukemia.
Test [5] deals with IGROV1 ovarian.
Test [6] concerns OVCAR-8 ovarian.
Test [7] has as its system SK-MEL-2 melanoma.
For test [8], the system named is SK-OV-3 ovarian.
The test system of test [9] is SN12C renal.
The subject of test [10] is T-47D breast.

Structures are written as SMILES.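 Exposure lasted 48 hours, with cells grown in 96-well plates and compounds tested at five concentrations. GI50 marks 50% less growth. Definition used: TGI = concentration required for complete inhibition of growth.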

For orientation: TGI means the concentration at which net growth stops. The low end stands for greater sensitivity of the cells, the high end for lower sensitivity of the cells. Take `COc1ccc(-c2cc3cc(Cl)cc(Cl)c3oc2=O)cc1OC`: the TGI in test [1], in test [2], in test [3], in [4], in test [5] and in [6] was greater than 100 µM each time. Further, the TGI in test [7], in [8], in [9] and in [10] was greater than 100 µM in each case.
For the compound `Cc1cc(-c2ccccc2)nc2oc(=O)n(C)c12`, the TGI in test [1], in test [2], in [3], in [4], in [5] and in test [6] was greater than 100 µM each time. Besides, the TGI in test [7], in test [8], in [9] and in test [10] was greater than 100 µM in each case.
Take `O=C1CC[C@@]23CC(=O)O[C@@H]2CCCC3C1` (some centres undefined): the TGI in test [1], in test [2], in [3], in [4], in test [5] and in test [6] was greater than 100 µM each time. Also, the TGI in test [7], in test [8], in test [9] and in [10] was greater than 100 µM each time.
For the compound `O=C(Nc1nn(C(=O)c2cccnc2)c(=O)s1)c1ccc(Cl)cc1`, the TGI in [1], in [2], in test [3], in test [4], in test [6] and in test [7] was greater than 100 µM in each case. Further, the TGI in test [8], in test [9] and in test [10] was greater than 100 µM each time.
As to `CC1=C(C(=O)OCCO[N+](=O)[O-])C(c2ccccc2[N+](=O)[O-])C(C(=O)OC(C)C)=C(C)N1` (centres undefined), the TGI in test [1] was 41.9 µM; in [2] it was greater than 100 µM; in test [3], 29.5 µM; in [4] it was greater than 100 µM; in test [5], 34.9 µM; in test [6], 63.7 µM. Further, the TGI in test [7] came out at 30.5 µM; in test [8], 39.8 µM; in test [9] it was 34.9 µM; in test [10], 46.8 µM.
Consider `CCOC(=O)N1CCN(c2c(N)nc(C)[nH]c2=O)CC1`, for which the TGI in test [1], in test [2], in test [3], in test [4], in test [6] and in [7] was greater than 100 µM throughout. The TGI in test [9] and in test [10] was greater than 100 µM each time.
For the compound `CC[C@H](NC(=O)OC(C)(C)C)C(=O)NCP(=O)(OCc1ccc([N+](=O)[O-])cc1)OCc1ccc([N+](=O)[O-])cc1`, the TGI was greater than 100 µM in test [1]; greater than 100 µM in test [2]; greater than 100 µM in test [3]; 62.2 µM in test [4]; greater than 100 µM in test [5]; greater than 100 µM in [6]. Also, the TGI in [7] was greater than 100 µM; in [8], 86 µM; in [9], greater than 100 µM; in [10], greater than 100 µM.
`CC(C)=CCc1c(O)cc2oc(-c3ccc(O)cc3O)cc(=O)c2c1O`: the TGI in [1] was greater than 100 µM; in [2] it was 28.2 µM; in test [3], 35.1 µM; in [4], 51 µM; in test [5] it was greater than 100 µM; in [6], greater than 100 µM. The concentration for total growth inhibition (TGI) in test [7] was 64.7 µM; in test [8], greater than 100 µM; in [9], greater than 69.1 µM; in [10], 49.8 µM.
`OC(CC(O)(C(F)(F)Cl)C(F)(F)Cl)c1ccccc1` (centres undefined): the TGI was greater than 10 µM in [1]; greater than 10 µM in test [2]; greater than 10 µM in test [3]; greater than 10 µM in test [4]; 0.0883 µM in [5]; greater than 10 µM in [6]. Besides, the TGI in test [7], in [8], in test [9] and in test [10] was greater than 10 µM in each case.
Turning to `CC(C)=C/C(CC(O)(C(F)(F)F)C(F)(F)F)=N\O`, the TGI in test [1], in test [2], in test [3], in test [4], in test [5] and in [6] was greater than 100 µM in each case. Moreover, the TGI in [8], in test [9] and in test [10] was greater than 100 µM in each case.
In the case of `Nc1c(N2CCOCC2)c(=O)nc2[nH]/c(=C\c3ccccc3O)c(=O)n12`, the TGI in [1], in test [2], in [3], in test [4], in test [5] and in test [6] was greater than 100 µM throughout. The TGI in test [8], in test [9] and in test [10] was greater than 100 µM in each case.
`Cc1c(C(=O)NNc2ccccc2)n2c(=S)[nH]nc2c2ccccc12`: the TGI in test [1], in test [2], in test [3], in test [4], in test [5] and in test [6] was greater than 100 µM in each case. For the same compound, the TGI in test [7], in test [8], in [9] and in test [10] was greater than 100 µM in each case.
As usually defined, the GI50 is the concentration at which growth is held to half of that of the control. As for `O=C1c2cc3c(cc2-c2c1c1ccc(Cl)cc1c(=O)n2CCCn1ccnc1)OCO3`, the GI50 in test [1] was 13.6 nM; in test [2] it was less than 10 nM; in test [3] it was 73.7 nM; in [4] it was less than 10 nM; in test [5], 65.6 nM; in [6], 11.6 nM. The GI50 was 649 nM in test [7], less than 10 nM in test [8], less than 10 nM in [9] and less than 10 nM in test [10]. Also, the TGI in test [1] is greater than 100 µM; in [2], 10.5 µM; in [3], greater than 100 µM; in test [4], 1.93 µM; in [5], greater than 100 µM; in [6], greater than 100 µM. In addition, the TGI is greater than 100 µM in test [7], 26.6 µM in test [8], greater than 100 µM in [9] and greater than 100 µM in test [10].
For the compound `CCOC(=O)C(NC(=O)c1cccc(Cl)c1)(Nc1cccc(C)c1)C(F)(F)F` (centres undefined), the TGI in [1] was greater than 100 µM; in test [2], greater than 100 µM; in [3], 31.4 µM; in test [4], greater than 100 µM; in [5], 34.8 µM; in test [6] it was 61 µM. The TGI is 31.8 µM in test [7], 50.8 µM in [9] and 54.5 µM in [10].
As for `O=C([C@H](O)[C@@H](O)c1cccc(Cl)c1)C12CC3CC(CC(C3)C1)C2`, the TGI in test [1] was 5.25 µM; in test [2], greater than 100 µM; in test [3] it was 4.15 µM; in [4], 3.79 µM; in [5] it was 2.68 µM; in test [6], 4.69 µM. Further, the TGI in test [7] turned out to be 4.24 µM; in test [8], 22.8 µM; in test [9], 3.95 µM; in [10], 4.21 µM.
As to `CCC1(CC)C(=O)N(C(=O)c2cc(OC)c(OC)c(OC)c2)N(C(=O)c2cc(OC)c(OC)c(OC)c2)C1=O`, the TGI in [1], in test [2], in [3], in test [4], in [5] and in test [6] was greater than 50 µM throughout. The TGI in test [7], in test [8], in test [9] and in test [10] was greater than 50 µM each time.
As for `Cc1ccc(C)c(COCCOCn2cc(N3CCOCC3)c(=O)[nH]c2=O)c1`, the TGI in test [1], in test [2], in test [3], in test [4], in test [5] and in test [6] was greater than 100 µM each time. Moreover, the TGI in [7], in [8], in test [9] and in [10] was greater than 100 µM in each case.
As to `CSc1ccc(/C=C2\N=C(c3ccccc3)N(c3nc4cc(Cl)c(F)cc4s3)C2=O)cc1`, the TGI in test [1] was greater than 100 µM; in test [2], 55.6 µM; in test [3], greater than 100 µM; in test [4], greater than 100 µM; in test [5] it was greater than 100 µM; in test [6], 51.7 µM. Moreover, the TGI in test [7] is 50.4 µM; in test [8], greater than 100 µM; in test [9], greater than 100 µM; in test [10], greater than 100 µM.
Take `C[C@H]1[C@H](C)CC[C@]2(C(=O)OC3OC(CO)C(O)C(O)C3O)CC[C@]3(C)C(=CC[C@@H]4[C@@]5(C)C[C@@H](O)[C@@H]6OC(=O)c7cc(O)c(O)c(O)c7-c7c(cc(O)c(O)c7O)C(=O)OC[C@@]6(CO)[C@@H]5CC[C@]43C)[C@H]12` (some centres undefined): the TGI is greater than 100 µM in test [1]; 98.7 µM in [2]; greater than 100 µM in test [3]; greater than 100 µM in test [4]; greater than 100 µM in test [5]; greater than 100 µM in test [6]. Further, the total growth inhibition concentration (TGI) in [7], in test [8], in test [9] and in [10] was greater than 100 µM throughout.
Regarding `CS(=O)(=O)Nc1ccc2ccccc2c1`, the TGI in [1], in test [2], in test [3], in test [4], in test [5] and in test [6] was greater than 100 µM each time. Moreover, the TGI in test [7], in test [8], in test [9] and in test [10] was greater than 100 µM in each case.
Turning to `CCOC(=O)c1csc(NC(=O)CCN2CCN(C)CC2)n1`, the TGI in test [1], in [2], in test [3], in test [4], in test [6] and in test [7] was greater than 100 µM each time. Moreover, the TGI in test [8] and in [10] was greater than 100 µM throughout.
In the case of `CC(=O)Oc1ccn2nc(C)c(Br)c2c1`, the TGI in test [1] was greater than 100 µM; in test [2], greater than 100 µM; in test [3], greater than 100 µM; in test [4], greater than 86.5 µM; in [5], greater than 100 µM; in [6] it was greater than 100 µM. The total growth inhibition concentration (TGI) in [7], in [9] and in [10] was greater than 100 µM in each case.
As to `O=c1c2c3c(sc2nc2n1N=C(c1ccc(Br)cc1)CS2)CCCC3`, the TGI in [1], in test [2], in [3], in test [4], in test [5] and in test [6] was greater than 100 µM each time. Also, the TGI in [8], in test [9] and in [10] was greater than 100 µM each time.
Take `O=C(c1ccc([N+](=O)[O-])cc1)N1CCCC1`: the TGI in [1], in test [2], in test [3], in test [4], in test [5] and in test [6] was greater than 100 µM throughout. In addition, the TGI in [9] and in [10] was greater than 100 µM in each case.
For `Cc1cc(S(=O)(=O)N=C2Nc3cccc4cccc(c34)N2)c(S)cc1Cl`, the TGI in test [1], in [2], in test [3], in test [4], in test [5] and in [6] was greater than 100 µM in each case. For the same compound, the TGI in [7] and in test [10] was greater than 100 µM throughout.
As for `NC(=O)C1CCN(Cc2c(Cl)c(Cl)c(CN3CCC(C(N)=O)CC3)c(Cl)c2Cl)CC1`, the TGI in test [1], in test [2], in test [3], in test [4], in test [6] and in test [7] was greater than 100 µM in each case. Besides, the values for the TGI in [8], in test [9] and in [10] were 46.5 µM, greater than 100 µM and greater than 100 µM, respectively.
For `COc1cc2c(c(OC)c1)[C@H](C)N(Cc1ccccc1)C(C)C2` (some centres undefined), the TGI was greater than 100 µM in test [1]; greater than 100 µM in [2]; greater than 100 µM in [3]; 24.8 µM in [4]; greater than 100 µM in [5]; greater than 100 µM in test [6]. For the same compound, the TGI in [8], in test [9] and in test [10] was greater than 100 µM each time.
